Measured values published in patent publication US10189863B2, “5,6-dihydro-4H-benzo[b]thieno-[2,3-d]azepine derivatives” (PULMOCIDE LIMITED, priority 2014, dated 2019).

Experiments:
[1] = tested on: RSV A2 F-protein expression in BEAS2B bronchial epithelial cells; test: Assessment of RSV F protein expression in BEAS2B bronchial epithelial cells; format: cell-based; conditions: human respiratory syncytial virus, BEAS-2B, 72 h, read-out: RSV A2 F-protein IC50 (nM)
Method: Assessment of RSV F Protein Expression in BEAS2B Bronchial Epithelial Cells
An early event which follows the infection of epithelial cells by RSV is the expression of RSV F-protein on the cells' surface. BEAS2B cells (SV40-immortalised human bronchial epithelial cell line) were grown in 96 well plates. Once more than 70% confluent, cells were infected with RSV A2 (#0709161v, NCPV, Public Health England, Wiltshire) at an MOI of 0.01 in clear RPMI-1640 medium (Life technologies, Paisley, UK) with 2% FBS (Life technologies, Paisley, UK), and incubated for 3 days (37° C./5% CO2).
Supernatant was aspirated and the cells were fixed with 4% formaldehyde (100 μL in PBS solution) for 20 min, washed 3 times with washing buffer (200 μL; PBS containing 0.05% Tween-20) and incubated with blocking solution (100 μL; 5% Marvel milk in PBS) for 1 hr. Cells were then washed with washing buffer (200 μL) and incubated for 1 hr at 37° C. with anti-RSV (2F7; mouse monoclonal, lot 160290, Cat. No. ab43812, Abcam plc, Cambridge, UK) F-fusion protein antibody (50 μL; prepared at a 1:1000 dilution in 5% milk/PBS-tween). After washing, cells were incubated with an HRP-conjugated anti-mouse IgG antibody (50 μL prepared at a 1:2000 dilution in 5% milk in PBS; lot 00095437, Cat.No. P0447, Dako UK Ltd, Cambridgeshire, UK) for 1 hr. Cells were washed twice with washing buffer and once with PBS. TMB substrate (100 μL; substrate reagent pack lot 320436, Cat. No. DY999, R&D Systems, Inc. Abingdon, UK) was then added and the reaction was stopped by the addition of aq sulfuric acid (50 μL; 2N). The resultant signal was determined colourimetrically (OD: 450 nm with a reference wavelength of 655 nm) in a microplate reader (Multiskan FC®, ThermoFisher Scientific). Cells were then washed and 1% crystal violet solution (50 μL; lot SLB4576, Cat. No. HT90132-1L, Sigma-Aldrich) was applied for 30 min. After washing with PBS (200 μL) 3 times, 1% SDS (100 μL) was added to each well, and plates were shaken lightly for 1 hr prior to reading the absorbance at 595 nm. The measured OD450-655 readings were corrected for cell number by dividing the OD450-655 by the OD595 readings. The percentage inhibition for each well was calculated and the IC50 value derived from the concentration-response curve generated for each test compound.

RSV B Washington strain = test: Assessment of RSV induced CPE in HEp2 cells (RSV B Washington strain); format: cell-based; conditions: human respiratory syncytial virus, HEp2 cells; for IC50: HEp-2, 144 h, 1 MOI, 6 days, read-out: RSV B CPE IC50; for inhibition at 0.1 µg/mL / inhibition at 1 µg/mL: HEp-2; for inhibition at 0.1 µg/mL: Inhibition (%) at 0.1 μg/mL; for inhibition at 1 µg/mL: Inhibition (%) at 1 μg/mL, read-out: RSV B CPE % Inhibition
Outline: (§1)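 HEp2 cells were infected at MOI 1 with RSV A2 or RSV B Washington, with compound added at the same time (0.5% DMSO final). Incubation was 5 days for A2 and 6 days for B, then viability was read by resazurin fluorescence (545/590 nm) after 6 h. IC50, IC75 and IC90 came from concentration-response curves.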

[2] = Cell viability: resazurin assay; format: cell-based, human; conditions: human, HEp2 cells
Outline: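 HEp2 cells in 5% FBS DMEM exposed to compounds (0.5% DMSO final) for 5 days at 37 °C/5% CO2, then resazurin added for 6 h; fluorescence read at 545/590 nm. Percent viability loss calculated versus 0.5% DMSO vehicle, with increases shown as negative values; CC50 taken from concentration-response curves where appropriate.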

RSV A2 strain = test: Assessment of RSV induced CPE in HEp2 cells (RSV A2 strain); format: cell-based; conditions: human respiratory syncytial virus, HEp2 cells; for IC50: HEp-2, 120 h, 1 MOI, 5 days, read-out: RSV A2 CPE IC50; for inhibition at 0.01 µg/mL / inhibition at 0.1 µg/mL: HEp-2; for inhibition at 0.01 µg/mL: Inhibition (%) at 0.01 μg/mL; for inhibition at 0.1 µg/mL: Inhibition (%) at 0.1 μg/mL, read-out: RSV A2 CPE % Inhibition
Outline: as §1

For `Cc1cccc(F)c1NC(=O)c1cc2c(s1)-c1ccccc1N(C(=O)c1ccc(NC(=O)c3cc4c(nc3N3CC5(CCOCC5)C3)CCC4)cc1)CC2` [Example 8, 6-(4-(2-(7-Oxa-2-azaspiro[3.5]nonan-2-yl)-6,7-dihydro-5H-cyclopenta[b]pyridine-3-carboxamido)benzoyl)-N-(2-fluoro-6-methylphenyl)-5,6-dihydro-4H-benzo[b]thieno[2,3-d]azepine-2-carboxamide], the IC50 [1] was 0.13 nM, the IC50 (RSV B Washington strain) was 1.3 nM and the inhibition at 0.1 µg/mL (RSV B Washington strain) was 100%. The CC50 at 5 days [2] was over 13500 nM, the IC50 (RSV A2 strain) was 0.27 nM and the inhibition at 0.01 µg/mL (RSV A2 strain) was 88%.

With `Cc1cccc(F)c1NC(=O)c1cc2c(s1)-c1ccccc1N(C(=O)c1ccc(NC(=O)c3cc4c(nc3N3CC5(CCOCC5)C3)CCCC4)cc1)CC2` [Example 9, 6-(4-(2-(7-Oxa-2-azaspiro[3.5]nonan-2-yl)-5,6,7,8-tetrahydroquinoline-3-carboxamido)benzoyl)-N-(2-fluoro-6-methylphenyl)-5,6-dihydro-4H-benzo[b]thieno[2,3-d]azepine-2-carboxamide] the IC50 [1] was 0.034 nM, the IC50 (RSV B Washington strain) was 1.4 nM and the inhibition at 0.1 µg/mL (RSV B Washington strain) was 100%. It also gave a CC50 at 5 days [2] of 12500 nM, an IC50 (RSV A2 strain) of 0.39 nM and an inhibition at 0.01 µg/mL (RSV A2 strain) of 92%.

Compound `Cc1cccc(F)c1NC(=O)c1cc2c(s1)-c1ccccc1N(C(=O)c1ccc(NC(=O)c3cc4ccccc4nc3N3CC4(CCOCC4)C3)cc1)CC2` [Example 10, 6-(4-(2-(7-Oxa-2-azaspiro[3.5]nonan-2-yl)quinoline-3-carboxamido)benzoyl)-N-(2-fluoro-6-methylphenyl)-5,6-dihydro-4H-benzo[b]thieno[2,3-d]azepine-2-carboxamide] has an IC50 [1] of 0.48 nM, an IC50 (RSV B Washington strain) of 1.5 nM and an inhibition at 0.1 µg/mL (RSV B Washington strain) of 100%. For the same compound, the CC50 at 5 days [2] was over 13300 nM, the IC50 (RSV A2 strain) was 0.11 nM and the inhibition at 0.1 µg/mL (RSV A2 strain) was 100%.

`Cc1ccccc1NC(=O)c1cc2c(s1)-c1ccccc1N(C(=O)c1ccc(NC(=O)c3cccnc3N3CC4(CCOCC4)C3)cc1)CC2` [Example 14, 6-(4-(2-(7-oxa-2-azaspiro[3.5]nonan-2-yl)nicotinamido)benzoyl)-N-(o-tolyl)-5,6-dihydro-4H-benzo[b]thieno[2,3-d] azepine-2-carboxamide] showed an IC50 [1] of 0.41 nM, an IC50 (RSV B Washington strain) of 54.5 nM and an inhibition at 1 µg/mL (RSV B Washington strain) of 92%. The CC50 at 5 days [2] was over 14600 nM, the IC50 (RSV A2 strain) was 0.65 nM and the inhibition at 0.1 µg/mL (RSV A2 strain) was 100%.

In the case of `O=C(Nc1ccccc1F)c1cc2c(s1)-c1ccccc1N(C(=O)c1ccc(NC(=O)c3cccnc3N3CC4(CCOCC4)C3)cc1)CC2` [Example 15, 6-(4-(2-(7-oxa-2-azaspiro[3.5]nonan-2-yl)nicotinamido)benzoyl)-N-(2-fluorophenyl)-5,6-dihydro-4H-benzo[b]thieno [2,3-d]azepine-2-carboxamide], the IC50 [1] is reported as 0.36 nM, the IC50 (RSV B Washington strain) is reported as 20.4 nM and the inhibition at 1 µg/mL (RSV B Washington strain) is reported as 85%. For the same compound, the CC50 at 5 days [2] was over 14500 nM, the IC50 (RSV A2 strain) was 0.4 nM and the inhibition at 0.1 µg/mL (RSV A2 strain) was 100%.

For `O=C(Nc1ccccc1Cl)c1cc2c(s1)-c1ccccc1N(C(=O)c1ccc(NC(=O)c3cccnc3N3CC4(CCOCC4)C3)cc1)CC2` [Example 16, 6-(4-(2-(7-oxa-2-azaspiro[3.5]nonan-2-yl)nicotinamido)benzoyl)-N-(2-chlorophenyl)-5,6-dihydro-4H-benzo[b]thieno [2,3-d]azepine-2-carboxamide], the IC50 [1] was 0.93 nM, the IC50 (RSV B Washington strain) was 142 nM and the inhibition at 1 µg/mL (RSV B Washington strain) was 63%. For the same compound, the CC50 at 5 days [2] was over 14200 nM, the IC50 (RSV A2 strain) was 0.76 nM and the inhibition at 0.1 µg/mL (RSV A2 strain) was 100%.

Compound `O=C(Nc1c(F)cccc1Cl)c1cc2c(s1)-c1ccccc1N(C(=O)c1ccc(NC(=O)c3cccnc3N3CC4(CCOCC4)C3)cc1)CC2` [Example 26, 6-(4-(2-(7-oxa-2-azaspiro[3.5]nonan-2-yl)nicotinamido)benzoyl)-N-(2-chloro-6-fluorophenyl)-5,6-dihydro-4H-benzo[b]thieno[2,3-d]azepine-2-carboxamide] has an IC50 [1] of 0.14 nM, an IC50 (RSV B Washington strain) of 9.3 nM and an inhibition at 1 µg/mL (RSV B Washington strain) of 73%. The CC50 at 5 days [2] was over 13800 nM, the IC50 (RSV A2 strain) was 0.12 nM and the inhibition at 0.1 µg/mL (RSV A2 strain) was 95%.

`O=C(Nc1ccc(F)cc1Cl)c1cc2c(s1)-c1ccccc1N(C(=O)c1ccc(NC(=O)c3cccnc3N3CC4(CCOCC4)C3)cc1)CC2` [Example 27, 6-(4-(2-(7-oxa-2-azaspiro[3.5]nonan-2-yl)nicotinamido)benzoyl)-N-(2-chloro-4-fluorophenyl)-5,6-dihydro-4H-benzo [b]thieno[2,3-d]azepine-2-carboxamide] gave an IC50 [1] of 0.51 nM, an IC50 (RSV B Washington strain) of 37.4 nM and an inhibition at 1 µg/mL (RSV B Washington strain) of 100%. The CC50 at 5 days [2] was over 13800 nM, the IC50 (RSV A2 strain) was 0.17 nM and the inhibition at 0.1 µg/mL (RSV A2 strain) was 100%.

For `O=C(Nc1c(F)cccc1F)c1cc2c(s1)-c1ccccc1N(C(=O)c1ccc(NC(=O)c3cccnc3N3CC4(CCOCC4)C3)cc1F)CC2` [Example 30, 6-(4-(2-(7-oxa-2-azaspiro[3.5]nonan-2-yl)nicotinamido)-2-fluorobenzoyl)-N-(2,6-difluorophenyl)-5,6-dihydro-4H-benzo[b]thieno[2,3-d]azepine-2-carboxamide], the IC50 [1] was 0.27 nM, the IC50 (RSV B Washington strain) was 27.3 nM and the inhibition at 1 µg/mL (RSV B Washington strain) was 94%. For the same compound, the CC50 at 5 days [2] was over 13800 nM, the IC50 (RSV A2 strain) was 0.12 nM and the inhibition at 0.1 µg/mL (RSV A2 strain) was 100%.

`Cc1cnc(N2CC3(CCOCC3)C2)c(C(=O)Nc2ccc(C(=O)N3CCc4cc(C(=O)Nc5ccccc5F)sc4-c4ccccc43)cc2)c1` [Example 33, N-(2-fluorophenyl)-6-(4-(5-methyl-2-(7-oxa-2-azaspiro [3.5]nonan-2-yl)nicotinamido)benzoyl)-5,6-dihydro-4H-benzo[b]thieno[2,3-d]azepine-2-carboxamide] showed an IC50 [1] of 0.19 nM, an IC50 (RSV B Washington strain) of 9.7 nM and an inhibition at 1 µg/mL (RSV B Washington strain) of 74%. The CC50 at 5 days [2] was over 14200 nM, the IC50 (RSV A2 strain) was under 0.014 nM and the inhibition at 0.1 µg/mL (RSV A2 strain) was 100%.

Compound `Cc1cnc(N2CC3(CCOCC3)C2)c(C(=O)Nc2ccc(C(=O)N3CCc4cc(C(=O)Nc5c(F)cccc5Cl)sc4-c4ccccc43)cc2)c1` [Example 39, N-(2-chloro-6-fluorophenyl)-6-(4-(5-methyl-2-(7-oxa-2-azaspiro[3.5]nonan-2-yl)nicotinamido)benzoyl)-5,6-dihydro-4H-benzo[b]thieno[2,3-d]azepine-2-carboxamide] has an IC50 [1] of 0.057 nM, an IC50 (RSV B Washington strain) of 17.3 nM and an inhibition at 1 µg/mL (RSV B Washington strain) of 77%. The CC50 at 5 days [2] was over 13600 nM, the IC50 (RSV A2 strain) was under 0.014 nM and the inhibition at 0.1 µg/mL (RSV A2 strain) was 100%.

Compound `Cc1cnc(N2CCC3(CC2)COC3)c(C(=O)Nc2ccc(C(=O)N3CCc4cc(C(=O)Nc5c(F)cccc5C(F)(F)F)sc4-c4ccccc43)cc2)c1` [Example 94, N-(2-fluoro-6-(trifluoromethyl)phenyl)-6-(4-(5-methyl-2-(2-oxa-7-azaspiro[3.5]nonan-7-yl)nicotinamido)benzoyl)-5,6-dihydro-4H-benzo[b]thieno[2,3-d]azepine-2-carboxamide] has an IC50 (RSV B Washington strain) of 811 nM, an inhibition at 1 µg/mL (RSV B Washington strain) of 54% and a CC50 at 5 days [2] of over 13000 nM. The IC50 (RSV A2 strain) was 1.4 nM and the inhibition at 0.01 µg/mL (RSV A2 strain) was 100%.

`Cc1cnc(N2CCC3(CCOCC3)CC2)c(C(=O)Nc2ccc(C(=O)N3CCc4cc(C(=O)Nc5c(C)cccc5F)sc4-c4ccccc43)cc2)c1` [Example 95, N-(2-fluoro-6-methylphenyl)-6-(4-(5-methyl-2-(3-oxa-9-azaspiro[5.5]undecan-9-yl)nicotinamido)benzoyl)-5,6-di-hydro-4H-benzo[b]thieno[2,3-d]azepine-2-carboxamide] showed an IC50 (RSV B Washington strain) of over 1340 nM, an inhibition at 1 µg/mL (RSV B Washington strain) of 27% and a CC50 at 5 days [2] of over 13400 nM. The IC50 (RSV A2 strain) was 2.4 nM and the inhibition at 0.01 µg/mL (RSV A2 strain) was 100%.
